Measured values: patent US8372855B2, “Cyclohexyloxy-substituted heterocyclics, medicines containing these compounds and method for the production thereof” (Boehringer Ingelheim International GmbH, priority 2008, dated 2013)
pIC50: −log10 of the molar value.

biological target: T1, human EGF-R (Homo sapiens, UniProt P00533); test: Inhibition of EGFR-dependent proliferation (EGF-stimulated murine haematopoietic cell line expressing human EGF-R, Cell Titer 96 AQueous assay); assay type: cell-based; settings: 20 ng/ml human EGF, 48 hours at 37° C.
T1 construct: expressed in transfected cells
T1 sequence (P00533 25-1210): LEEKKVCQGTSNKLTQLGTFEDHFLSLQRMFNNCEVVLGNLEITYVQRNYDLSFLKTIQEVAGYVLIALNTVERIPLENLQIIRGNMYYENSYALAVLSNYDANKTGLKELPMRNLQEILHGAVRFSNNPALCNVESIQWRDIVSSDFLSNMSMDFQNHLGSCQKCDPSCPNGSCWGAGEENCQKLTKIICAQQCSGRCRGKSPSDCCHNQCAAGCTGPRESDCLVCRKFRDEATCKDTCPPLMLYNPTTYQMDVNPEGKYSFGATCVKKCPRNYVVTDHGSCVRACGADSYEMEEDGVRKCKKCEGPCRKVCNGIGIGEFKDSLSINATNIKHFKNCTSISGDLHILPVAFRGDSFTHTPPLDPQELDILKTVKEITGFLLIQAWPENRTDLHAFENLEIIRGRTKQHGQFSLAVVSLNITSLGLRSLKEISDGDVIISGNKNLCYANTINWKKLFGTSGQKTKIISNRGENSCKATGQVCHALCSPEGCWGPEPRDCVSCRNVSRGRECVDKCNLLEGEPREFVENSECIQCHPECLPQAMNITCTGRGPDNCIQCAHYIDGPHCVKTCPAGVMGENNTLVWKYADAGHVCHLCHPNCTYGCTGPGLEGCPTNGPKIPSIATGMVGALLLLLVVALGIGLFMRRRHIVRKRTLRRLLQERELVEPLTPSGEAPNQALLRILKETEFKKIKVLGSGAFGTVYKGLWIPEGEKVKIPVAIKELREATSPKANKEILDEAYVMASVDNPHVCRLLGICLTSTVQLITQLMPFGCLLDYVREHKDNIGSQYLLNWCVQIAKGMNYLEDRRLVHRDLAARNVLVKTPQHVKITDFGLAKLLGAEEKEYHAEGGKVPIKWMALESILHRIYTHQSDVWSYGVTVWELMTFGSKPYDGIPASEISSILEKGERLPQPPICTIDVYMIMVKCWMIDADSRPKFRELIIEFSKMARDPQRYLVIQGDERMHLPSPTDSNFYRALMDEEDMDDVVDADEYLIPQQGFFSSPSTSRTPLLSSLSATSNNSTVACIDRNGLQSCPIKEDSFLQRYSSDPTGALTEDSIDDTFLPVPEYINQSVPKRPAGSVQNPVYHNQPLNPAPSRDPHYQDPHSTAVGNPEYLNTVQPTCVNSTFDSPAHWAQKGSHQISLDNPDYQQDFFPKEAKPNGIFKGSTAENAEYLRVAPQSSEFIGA
Method: A murine haematopoietic cell line is genetically modified so as to express functional human EGF-R. The proliferation of this cell line can therefore be stimulated by EGF.
The test is carried out as follows:
The cells are cultivated in RPMI/1640 medium. The proliferation is stimulated with 20 ng/ml of human EGF (Promega). To investigate the inhibitory activity of the compounds according to the invention these compounds are dissolved in 100% dimethylsulphoxide (DMSO) and added to the cultures in various dilutions, the maximum DMSO concentration being 1%. The cultures are incubated for 48 hours at 37° C.
In order to determine the inhibitory activity of the compounds according to the invention the relative cell number is measured in O.D. units using the Cell Titer 96™ AQueous Non-Radioactive Cell Proliferation Assay (Promega). The relative cell number is calculated as a percentage of the control and the concentration of active substance which inhibits the proliferation of the cells by 50% (IC50) is derived therefrom.

| pIC50 | SMILES |
| --- | --- |
| 8.51 | CCCCN1CCN([C@H]2CC[C@H](Oc3cc4c(Nc5cccc(Cl)c5F)ncnc4cc3OC)CC2)CC1=O [1(2), trans] |
| 8.03 | COc1cc2ncnc(Nc3cccc(Cl)c3F)c2cc1O[C@H]1CC[C@@H](N2CCN(C3CCOCC3)C(=O)C2)CC1 [1(3), cis] |
| 7.92 | CCCCN1CCN([C@H]2CC[C@@H](Oc3cc4c(Nc5cccc(Cl)c5F)ncnc4cc3OC)CC2)CC1=O [1(2), cis] |
| 8.80 | COc1cc2ncnc(Nc3cccc(Cl)c3F)c2cc1O[C@H]1CC[C@H](N2CCN(C3CCOCC3)C(=O)C2)CC1 [1(3), trans] |
| 8.89 | CCN1CCN([C@H]2CC[C@H](Oc3cc4c(Nc5cccc(Cl)c5F)ncnc4cc3OC)CC2)CC1=O [1, trans] |
| 8.77 | COc1cc2ncnc(Nc3cccc(Cl)c3F)c2cc1O[C@H]1CC[C@H](N2CCN(CC3CC3)C(=O)C2)CC1 [1(1), trans] |
| 8.15 | CCN1CCN([C@H]2CC[C@@H](Oc3cc4c(Nc5cccc(Cl)c5F)ncnc4cc3OC)CC2)CC1=O [1, cis] |
| 8.00 | COc1cc2ncnc(Nc3cccc(Cl)c3F)c2cc1O[C@H]1CC[C@@H](N2CCN(CC3CC3)C(=O)C2)CC1 [1(1), cis] |
